Columns and labels:
Lolium multiflorum = test: Post-emergence herbicidal activity, LOLMU; assay type: in vivo; conditions: dosage rate 80 g/ha, scored visually after approx. 3 weeks vs untreated controls
Description: (§1) Seeds of monocotyledonous or dicotyledonous weed plants or crop plants are placed in sandy loam in wood fiber pots, covered with soil and grown in the greenhouse under good growth conditions. 2 to 3 weeks after sowing, the test plants are treated in the one-leaf stage. The compounds according to the invention, which are formulated as wettable powders (WP), are then sprayed onto the green plant parts in the form of an aqueous suspension or emulsion with a water application rate of 600 I/ha (converted) with addition of 0.2% of wetter. After the test plants have been left to stand in the greenhouse for approximately 3 weeks under optimal growth conditions, the activity of the preparation is scored visually in comparison with untreated controls (herbicidal activity in percent (%): 100% activity=plants have died, 0% activity=like control plants).

Abutilon theophrasti = test: Post-emergence herbicidal activity, ABUTH; assay type: in vivo; conditions: dosage rate 80 g/ha, scored visually after approx. 3 weeks vs untreated controls
Description: as §1

Alopecurus myosuroides [1] = test: Post-emergence herbicidal activity, ALOMY; assay type: in vivo; conditions: dosage rate 80 g/ha, scored visually after approx. 3 weeks vs untreated controls
Description: as §1

Viola tricolor = test: Post-emergence herbicidal activity, VIOTR; assay type: in vivo; conditions: dosage rate 80 g/ha, scored visually after approx. 3 weeks vs untreated controls
Description: as §1

Echinochloa crus-galli = test: Post-emergence herbicidal activity, ECHCG; assay type: in vivo; conditions: dosage rate 80 g/ha, scored visually after approx. 3 weeks vs untreated controls
Description: as §1

Pharbitis purpurea = test: Post-emergence herbicidal activity, PHBPU; assay type: in vivo, Pharbitis/Ipomoea purpurea; conditions: dosage rate 80 g/ha, scored visually after approx. 3 weeks vs untreated controls
Description: as §1

Stellaria media [2] = test: Pre-emergence herbicidal activity, STEME; assay type: in vivo; conditions: 80 g/ha, WP formulation, scored visually after approximately 3 weeks vs untreated controls (100% = plants have died)
From the text: (§2) Seeds of monocotyledonous or dicotyledonous weed plants or crop plants are placed in sandy loam in wood fiber pots and covered with soil. The compounds according to the invention, which are formulated as wettable powders (WP) are then applied to the surface of the soil cover in the form of an aqueous suspension or emulsion with a water application rate of 600 I/ha (converted), with addition of 0.2% wetter. After the treatment, the pots are placed in the greenhouse and maintained under good growth conditions for the test plants. After approximately 3 weeks, the activity of the preparation is scored visually in comparison with untreated controls (herbicidal activity in percent (%): 100% activity=plants have died, 0% activity=like control plants).

Stellaria media [3] = test: Post-emergence herbicidal activity, STEME; assay type: in vivo; conditions: dosage rate 80 g/ha, scored visually after approx. 3 weeks vs untreated controls
Description: as §1

Matricaria inodora = test: Pre-emergence herbicidal activity, MATIN; assay type: in vivo; conditions: 80 g/ha, WP formulation, scored visually after approximately 3 weeks vs untreated controls (100% = plants have died)
From the text: as §2

Amaranthus retroflexus = test: Post-emergence herbicidal activity, AMARE; assay type: in vivo; conditions: dosage rate 80 g/ha, scored visually after approx. 3 weeks vs untreated controls
Description: as §1

Alopecurus myosuroides [4] = test: Pre-emergence herbicidal activity, ALOMY; assay type: in vivo; conditions: 80 g/ha, WP formulation, scored visually after approximately 3 weeks vs untreated controls (100% = plants have died)
From the text: as §2

COc1nc(C)nc(NC(=O)NS(=O)(=O)c2ncccc2C2=NOCC2)n1 [Ia-7]
herbicidal activity LOLMU (Lolium multiflorum): 90% | herbicidal activity ABUTH (Abutilon theophrasti): 80% | herbicidal activity ALOMY (Alopecurus myosuroides [1]): 80%

CCCC1CC(c2cccnc2S(=O)(=O)NC(=O)Nc2nc(OC)cc(OC)n2)=NO1 (centres unmarked) [Ia-21]
herbicidal activity LOLMU (Lolium multiflorum): 80% | herbicidal activity VIOTR (Viola tricolor): 80% | herbicidal activity ABUTH (Abutilon theophrasti): 80% | herbicidal activity ECHCG (Echinochloa crus-galli): 80% | herbicidal activity PHBPU (Pharbitis purpurea): 80% | herbicidal activity in percent, STEME (Stellaria media [2]): 80% | herbicidal activity STEME (Stellaria media [3]): 80% | herbicidal activity in percent, MATIN (Matricaria inodora): 80% | herbicidal activity AMARE (Amaranthus retroflexus): 80% | herbicidal activity ALOMY (Alopecurus myosuroides [1]): 80%

COc1nc(NC(=O)NS(=O)(=O)c2ncccc2C2=NOCC2)nc(OC)n1 [Ia-6]
herbicidal activity LOLMU (Lolium multiflorum): 90% | herbicidal activity AMARE (Amaranthus retroflexus): 80%

CCC1CC(c2cccnc2S(=O)(=O)NC(=O)Nc2nc(OC)cc(OC)n2)=NO1 (centres unmarked) [Ia-24]
herbicidal activity ABUTH (Abutilon theophrasti): 80% | herbicidal activity ECHCG (Echinochloa crus-galli): 100% | herbicidal activity PHBPU (Pharbitis purpurea): 90% | herbicidal activity in percent, STEME (Stellaria media [2]): 90% | herbicidal activity STEME (Stellaria media [3]): 90% | herbicidal activity in percent, MATIN (Matricaria inodora): 90% | herbicidal activity AMARE (Amaranthus retroflexus): 80% | herbicidal activity in percent, ALOMY (Alopecurus myosuroides [4]): 90%

CCCC1CC(c2cccnc2S(=O)(=O)NC(=O)Nc2nc(C)cc(OC)n2)=NO1 (centres unmarked) [Ia-17]
herbicidal activity LOLMU (Lolium multiflorum): 80% | herbicidal activity AMARE (Amaranthus retroflexus): 80% | herbicidal activity in percent, ALOMY (Alopecurus myosuroides [4]): 90% | herbicidal activity ALOMY (Alopecurus myosuroides [1]): 80%

COc1cc(OC)nc(NC(=O)NS(=O)(=O)c2ncccc2C2=NOC(C)(C)C2)n1 [Ia-13]
herbicidal activity LOLMU (Lolium multiflorum): 90% | herbicidal activity VIOTR (Viola tricolor): 90% | herbicidal activity ABUTH (Abutilon theophrasti): 90% | herbicidal activity ECHCG (Echinochloa crus-galli): 90% | herbicidal activity PHBPU (Pharbitis purpurea): 90% | herbicidal activity in percent, STEME (Stellaria media [2]): 80% | herbicidal activity STEME (Stellaria media [3]): 100% | herbicidal activity in percent, MATIN (Matricaria inodora): 80% | herbicidal activity AMARE (Amaranthus retroflexus): 90% | herbicidal activity in percent, ALOMY (Alopecurus myosuroides [4]): 90% | herbicidal activity ALOMY (Alopecurus myosuroides [1]): 90%

CCCC1CC(c2cccnc2S(=O)(=O)NC(=O)Nc2nc(C)nc(OC)n2)=NO1 (centres unmarked) [Ia-23]
herbicidal activity in percent, MATIN (Matricaria inodora): 80%

COc1cc(C)nc(NC(=O)NS(=O)(=O)c2ncccc2C2=NOCC2)n1 [Ia-9]
herbicidal activity LOLMU (Lolium multiflorum): 90% | herbicidal activity ABUTH (Abutilon theophrasti): 80% | herbicidal activity PHBPU (Pharbitis purpurea): 90% | herbicidal activity in percent, STEME (Stellaria media [2]): 80% | herbicidal activity STEME (Stellaria media [3]): 90% | herbicidal activity ALOMY (Alopecurus myosuroides [1]): 80%

COc1cc(C)nc(NC(=O)NS(=O)(=O)c2ncccc2C2=NOC(C)C2)n1 (centres unmarked) [Ia-15]
herbicidal activity LOLMU (Lolium multiflorum): 80% | herbicidal activity VIOTR (Viola tricolor): 80% | herbicidal activity ECHCG (Echinochloa crus-galli): 80% | herbicidal activity STEME (Stellaria media [3]): 80% | herbicidal activity in percent, MATIN (Matricaria inodora): 80% | herbicidal activity AMARE (Amaranthus retroflexus): 90% | herbicidal activity in percent, ALOMY (Alopecurus myosuroides [4]): 80% | herbicidal activity ALOMY (Alopecurus myosuroides [1]): 90%

COc1cc(Cl)nc(NC(=O)NS(=O)(=O)c2ncccc2C2=NOC(C)(C)C2)n1 [Ia-14]
herbicidal activity VIOTR (Viola tricolor): 90% | herbicidal activity ECHCG (Echinochloa crus-galli): 80% | herbicidal activity STEME (Stellaria media [3]): 80% | herbicidal activity AMARE (Amaranthus retroflexus): 90%

CCC1CC(c2cccnc2S(=O)(=O)NC(=O)Nc2nc(C)cc(OC)n2)=NO1 (centres unmarked) [Ia-19]
herbicidal activity LOLMU (Lolium multiflorum): 80% | herbicidal activity VIOTR (Viola tricolor): 80% | herbicidal activity ECHCG (Echinochloa crus-galli): 80% | herbicidal activity PHBPU (Pharbitis purpurea): 80% | herbicidal activity in percent, STEME (Stellaria media [2]): 80% | herbicidal activity STEME (Stellaria media [3]): 80% | herbicidal activity AMARE (Amaranthus retroflexus): 80% | herbicidal activity in percent, ALOMY (Alopecurus myosuroides [4]): 80% | herbicidal activity ALOMY (Alopecurus myosuroides [1]): 90%

CN(C)c1nc(NC(=O)NS(=O)(=O)c2ncccc2C2=NOCC2)nc(OCC(F)(F)F)n1 [Ia-8]
herbicidal activity LOLMU (Lolium multiflorum): 90% | herbicidal activity ABUTH (Abutilon theophrasti): 80% | herbicidal activity ECHCG (Echinochloa crus-galli): 80%

COc1cc(Cl)nc(NC(=O)NS(=O)(=O)c2ncccc2C2=NOCC2)n1 [Ia-1, N-[(4-Chloro-6-methoxypyrimidin-2-yl)carbamoyl]-3-(4,5-dihydroisoxazol-3-yl)-pyridine-2-sulfonamide]
herbicidal activity LOLMU (Lolium multiflorum): 90% | herbicidal activity VIOTR (Viola tricolor): 80% | herbicidal activity ABUTH (Abutilon theophrasti): 90% | herbicidal activity ECHCG (Echinochloa crus-galli): 100% | herbicidal activity PHBPU (Pharbitis purpurea): 100% | herbicidal activity in percent, STEME (Stellaria media [2]): 90% | herbicidal activity STEME (Stellaria media [3]): 90% | herbicidal activity in percent, MATIN (Matricaria inodora): 90% | herbicidal activity AMARE (Amaranthus retroflexus): 90% | herbicidal activity in percent, ALOMY (Alopecurus myosuroides [4]): 90% | herbicidal activity ALOMY (Alopecurus myosuroides [1]): 80%

COc1cc(C)nc(NC(=O)NS(=O)(=O)c2ncccc2C2=NOC(C(C)C)C2)n1 (centres unmarked) [Ia-22]
herbicidal activity LOLMU (Lolium multiflorum): 80% | herbicidal activity VIOTR (Viola tricolor): 80% | herbicidal activity ABUTH (Abutilon theophrasti): 80% | herbicidal activity PHBPU (Pharbitis purpurea): 80% | herbicidal activity in percent, STEME (Stellaria media [2]): 100% | herbicidal activity ALOMY (Alopecurus myosuroides [1]): 80%

COc1cc(OC)nc(NC(=O)NS(=O)(=O)c2ncccc2C2=NOC(C)C2)n1 (centres unmarked) [Ia-11]
herbicidal activity LOLMU (Lolium multiflorum): 100% | herbicidal activity VIOTR (Viola tricolor): 90% | herbicidal activity ABUTH (Abutilon theophrasti): 90% | herbicidal activity ECHCG (Echinochloa crus-galli): 100% | herbicidal activity PHBPU (Pharbitis purpurea): 90% | herbicidal activity in percent, STEME (Stellaria media [2]): 80% | herbicidal activity STEME (Stellaria media [3]): 100% | herbicidal activity in percent, MATIN (Matricaria inodora): 80% | herbicidal activity AMARE (Amaranthus retroflexus): 100% | herbicidal activity in percent, ALOMY (Alopecurus myosuroides [4]): 90% | herbicidal activity ALOMY (Alopecurus myosuroides [1]): 90%

CCC1CC(c2cccnc2S(=O)(=O)NC(=O)Nc2nc(Cl)cc(OC)n2)=NO1 (centres unmarked) [Ia-20]
herbicidal activity LOLMU (Lolium multiflorum): 80% | herbicidal activity VIOTR (Viola tricolor): 80% | herbicidal activity ECHCG (Echinochloa crus-galli): 80% | herbicidal activity STEME (Stellaria media [3]): 80% | herbicidal activity AMARE (Amaranthus retroflexus): 80% | herbicidal activity in percent, ALOMY (Alopecurus myosuroides [4]): 80% | herbicidal activity ALOMY (Alopecurus myosuroides [1]): 80%

COc1cc(OC)nc(NC(=O)NS(=O)(=O)c2ncccc2C2=NOCC2)n1 [Ia-2]
herbicidal activity LOLMU (Lolium multiflorum): 90% | herbicidal activity VIOTR (Viola tricolor): 90% | herbicidal activity ABUTH (Abutilon theophrasti): 100% | herbicidal activity ECHCG (Echinochloa crus-galli): 100% | herbicidal activity PHBPU (Pharbitis purpurea): 90% | herbicidal activity in percent, STEME (Stellaria media [2]): 90% | herbicidal activity STEME (Stellaria media [3]): 90% | herbicidal activity in percent, MATIN (Matricaria inodora): 90% | herbicidal activity AMARE (Amaranthus retroflexus): 90% | herbicidal activity in percent, ALOMY (Alopecurus myosuroides [4]): 90% | herbicidal activity ALOMY (Alopecurus myosuroides [1]): 80%

CCC1CC(c2cccnc2S(=O)(=O)NC(=O)Nc2nc(C)nc(OC)n2)=NO1 (centres unmarked) [Ia-18]
herbicidal activity ECHCG (Echinochloa crus-galli): 80%

COc1cc(SC)nc(NC(=O)NS(=O)(=O)c2ncccc2C2=NOCC2)n1 [Ia-4]
herbicidal activity VIOTR (Viola tricolor): 80% | herbicidal activity ABUTH (Abutilon theophrasti): 80% | herbicidal activity ECHCG (Echinochloa crus-galli): 90% | herbicidal activity PHBPU (Pharbitis purpurea): 100% | herbicidal activity in percent, STEME (Stellaria media [2]): 90% | herbicidal activity STEME (Stellaria media [3]): 90% | herbicidal activity in percent, MATIN (Matricaria inodora): 90% | herbicidal activity AMARE (Amaranthus retroflexus): 100% | herbicidal activity in percent, ALOMY (Alopecurus myosuroides [4]): 80% | herbicidal activity ALOMY (Alopecurus myosuroides [1]): 80%

COc1cc(Cl)nc(NC(=O)NS(=O)(=O)c2ncccc2C2=NOC(C)C2)n1 (centres unmarked) [Ia-16]
herbicidal activity LOLMU (Lolium multiflorum): 90% | herbicidal activity VIOTR (Viola tricolor): 80% | herbicidal activity ECHCG (Echinochloa crus-galli): 80% | herbicidal activity STEME (Stellaria media [3]): 100% | herbicidal activity in percent, MATIN (Matricaria inodora): 80% | herbicidal activity AMARE (Amaranthus retroflexus): 90% | herbicidal activity in percent, ALOMY (Alopecurus myosuroides [4]): 80% | herbicidal activity ALOMY (Alopecurus myosuroides [1]): 80%
